{"source": "patent US10454124B2", "about": "“Highly stable phenazine derivatives for aqueous redox flow batteries” (Battelle Memorial Institute, priority 2017, dated 2019)", "key": {"[1]": {"test": "Cyclic voltammetry in 1 M NaOH", "format": "physicochemical", "conditions": "scan rate 100 mV/sec, 8.5 mM", "protocol": "Electrochemical Methods: Cyclic voltammetry experiments were performed with a CH Instruments model 660C potentiostat using a glassy carbon working electrode, a platinum wire counter electrode, and a Ag/AgCl reference electrode.\n[…]. This potential exceeds all other aqueous organic flow battery systems reported to date, which, combining the high effective electron concentration resulted from high solubility, leads to high theoretical energy densities."}, "[2]": {"test": "Solubility limit in 1 M NaOH", "format": "physicochemical", "conditions": "aqueous buffer", "excerpt": "In one embodiment, the phenazine derivative is present in the electrolyte at a concentration within a range of 0.01 M to 4 M. In an independent embodiment, the phenazine derivative is present in the electrolyte at a concentration within a range of from 4 M to 8 M. Certain embodiments of the phenazine derivatives provide 2 moles of electron transfer per mole of the compound, thus providing, for example, 2 M electron transfer when the phenazine derivative concentration is 1 M."}, "[3]": {"conditions": "cited from earlier work"}}, "data": [{"compound": "O=S(=O)(O)c1ccc2nc3cc(O)c(O)cc3nc2c1", "note": "[DHPS, 7,8-dihydroxy-phenazine-2-sulfonic acid]", "values": [{"measurement": "redox couple (vs. Ag/AgCl)", "setting": "[1]", "value": "−1.08", "unit": "V"}, {"measurement": "solubility", "setting": "[2]", "value": 1450, "unit": "mM"}]}, {"compound": "c1ccc2nc3ccccc3nc2c1", "note": "[phenazine]", "values": [{"measurement": "solubility in water", "setting": "[3]", "value": "insoluble in water"}]}]}
